Assay results from the NIST ThermoML archive (doi:10.1021/je700021f).

Test: xn = mol fraction of the nth substance listed
Conditions: 101 kPa, Liquid, Pulse-echo method

CCCCCCCCCCl [1-chlorononane] + CCCCCCCCC
speed of sound [m/s]
Conditions | x2 = 0 | x2 = 0.1 | x2 = 0.3 | x2 = 0.5 | x2 = 0.7 | x2 = 0.8 | x2 = 0.85 | x2 = 0.9
293.15 K | 1297.2 | 1283.1 | 1268.5 | 1254.2 | 1243.5 | 1232.8 | 1231.8 | 1222.6
298.15 K | 1278.2 | 1264.2 | 1249 | 1235 | 1223.5 | 1212.9 | 1211.9 | 1203.3
303.15 K | 1259.5 | 1245.4 | 1229.8 | 1215.9 | 1203.6 | 1193 | 1192.1 | 1184.1
308.15 K | 1240.9 | 1226.7 | 1210.6 | 1197 | 1183.9 | 1173.3 | 1172.4 | 1165
313.15 K | 1222.5 | 1208.1 | 1191.7 | 1178.1 | 1164.3 | 1153.7 | 1152.8 | 1145.9
318.15 K | 1204.3 | 1189.7 | 1172.8 | 1159.3 | 1144.9 | 1134.2 | 1133.4 | 1126.9
323.15 K | 1186.3 | 1171.4 | 1154.1 | 1140.6 | 1125.6 | 1114.9 | 1114 | 1107.9
328.15 K | 1168.4 | 1153.2 | 1135.6 | 1122 | 1106.5 | 1095.6 | 1094.7 | 1088.9
333.15 K | 1150.7 | 1135.2 | 1117.1 | 1103.6 | 1087.5 | 1076.5 | 1075.5 | 1070
338.15 K | 1133.2 | 1117.2 | 1098.9 | 1085.2 | 1068.7 | 1057.5 | 1056.4 | 1051.2
343.15 K | 1115.9 | 1099.4 | 1080.7 | 1066.9 | 1050 | 1038.6 | 1037.4 | 1032.4
348.15 K | 1098.8 | 1081.8 | 1062.7 | 1048.7 | 1031.5 | 1019.8 | 1018.5 | 1013.7
353.15 K | 1081.9 | 1064.2 | 1044.9 | 1030.6 | 1013.1 | 1001.1 | 999.7 | 995
358.15 K | 1065.1 | 1046.8 | 1027.2 | 1012.6 | 994.9 | 982.6 | 981 | 976.3
363.15 K | 1048.5 | 1029.5 | 1009.6 | 994.7 | 976.8 | 964.2 | 962.4 | 957.8
368.15 K | 1032.2 | 1012.3 | 992.2 | 976.9 | 958.9 | 945.8 | 943.9 | 939.2
373.15 K | 1015.9 | 995.2 | 974.9 | 959.2 | 941.1 | 927.7 | 925.5 | 920.7
378.15 K | 999.1 | 978.3 | 957.8 | 941.6 | 923.5 | 909.6 | 907.2 | 902.3
383.15 K | 982.7 | 961.5 | 940.8 | 924.1 | 906 | 891.6 | 889 | 883.9
388.15 K | 966.4 | 944.8 | 924 | 906.7 | 888.7 | 873.8 | 870.9 | 865.6
393.15 K | 950.3 | 928.3 | 907.3 | 889.4 | 871.5 | 856.1 | 852.9 | 847.3
398.15 K | 934.3 | 911.8 | 890.7 | 872.1 | 854.5 | 838.5 | 835 | 829.1
403.15 K | 918.4 | 895.5 | 874.3 | 855 | 837.6 | 821 | 817.2 | 810.9
408.15 K | 902.6 | 879.3 | 858 | 838 | 820.9 | 803.6 | 799.5 | 792.7
413.15 K | 887 | 863.3 | 841.9 | 821.1 | 804.3 | 786.3 | 781.9 | 774.6
418.15 K | 871.4 | 847.4 | 825.9 | 804.3 | 787.8 | 769.2 | 764.4 | 756.6
423.15 K | 856 | 831.5 | 810 | 787.5 | 771.6 | 752.2 | 747 | 738.6
